Here are results for one compound from patent publication US11712443B2, “17α-monoesters and 17α,21-diesters of cortexolone for use in the treatment of tumors” (COSMO TECHNOLOGIES LTD., priority 2014, dated 2023).

The test system of one data set is MiaPaca2. The note with it: human, 3 days.
The next data set has as its target T1, Glucocorticoid Receptor (Homo sapiens, UniProt P04150).
T1 construct: endogenous in cells; host or cells: human kidney epithelial cells
T1 sequence (P04150 1-777): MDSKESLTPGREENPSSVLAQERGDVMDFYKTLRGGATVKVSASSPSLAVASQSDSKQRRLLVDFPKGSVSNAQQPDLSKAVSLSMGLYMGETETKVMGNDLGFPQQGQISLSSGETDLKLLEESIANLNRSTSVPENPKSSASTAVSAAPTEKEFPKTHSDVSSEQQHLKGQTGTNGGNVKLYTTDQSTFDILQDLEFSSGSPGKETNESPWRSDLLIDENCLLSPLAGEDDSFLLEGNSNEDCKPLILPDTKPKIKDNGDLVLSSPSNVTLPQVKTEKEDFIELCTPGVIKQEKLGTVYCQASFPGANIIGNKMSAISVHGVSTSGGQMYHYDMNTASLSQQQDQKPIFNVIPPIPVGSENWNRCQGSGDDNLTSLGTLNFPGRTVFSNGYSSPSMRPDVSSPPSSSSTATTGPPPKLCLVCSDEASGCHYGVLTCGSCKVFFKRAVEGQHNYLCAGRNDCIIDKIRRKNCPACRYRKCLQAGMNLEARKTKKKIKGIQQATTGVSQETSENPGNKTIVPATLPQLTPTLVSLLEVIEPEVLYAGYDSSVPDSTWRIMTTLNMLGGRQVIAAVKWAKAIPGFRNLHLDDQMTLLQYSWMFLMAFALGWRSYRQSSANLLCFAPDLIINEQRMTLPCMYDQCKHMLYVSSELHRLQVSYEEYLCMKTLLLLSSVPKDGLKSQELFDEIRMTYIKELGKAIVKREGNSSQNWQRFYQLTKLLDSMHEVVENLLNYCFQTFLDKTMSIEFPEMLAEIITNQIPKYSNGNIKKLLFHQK
Description: GR transcriptional reporter assay, agonist mode. The class given is cell-based. The procedure:
The androgen and glucocorticoid hormones elicit divergent and often opposing effects in cells, tissues, and animals. […] CB-03-10 GR antagonist and agonist activities were tested in an in vitro assay. Briefly, human kidney epithelial cells were transfected with DNA construct containing GR binding sites linked to luminescent based reporter molecule. After 24 hours, cells were treated under antagonist or agonist modes. After an additional 24 hours, luminescence which is proportional to GR agonist transcriptional activity was quantitated.
Agonist Assay—was based on induction of luminescence by CB-03-10
The agonist activity of CB-03-10 was compared to a RU486 which is known to not have agonist activity.
In general terms: In a reporter assay the amount or activity of a reporter protein is the signal.

A further data set has as its system HT29. Description: In vitro proliferation, larger cancer cell line panel. The note with it: HT29.
A further data set deals with Caspase 3/7. Description: Caspase activity assay in MiaPaca2 cells. The class given is cell-based. Conditions: 8, 24, 48 hours, FIG. 11.
Data set [1] relates to LNCaP prostate cancer xenograft. The data set can be described thus: Human prostate cancer xenograft in nude mice, oral treatment. The class given is in vivo. The protocol:
3×10^6 LNCaP cells suspended in matrigel were subcutaneously injected (on the right flank) into 6 week old male athymic nude mice. Tumors were measured as described above. Treatment with CB-03-10 and controls compounds was initiated after the tumor had reached 50 mm3. […] Oral dosing was daily (100 mg/Kg in 200 μL/mouse) for 28 consecutive days. Results were plotted as average change in tumor volume relative to the start of treatment.

Description for Caspase 3/7: To better analyze the phenomenon the enzymatic activity of Caspase 8 (initiator caspase for Extrinsic Pathway) and Caspase 9 (initiator caspase for Intrinsic Pathway) and of Caspases 3 and 7 (effector caspases) were measured.
After 8, 24, & 48 hours incubation with test compounds, cells were lysed in buffer containing the caspase 3/7 or 8 or 9 substrate and a stable luciferase in proprietary buffers. The lysates were transferred to white opaque plates before measuring luminescence in a Tecan S afire instrument. Parallel plates treated identically, were used to determine viable cells. All caspase activities were corrected for the number of viable cells.

Turning to `CCCCC(=O)O[C@]1(C(=O)COC(=O)CC)CC[C@H]2[C@@H]3CCC4=CC(=O)CC[C@]4(C)[C@H]3CC[C@@]21C` [CB-03-10, cortexolone 17α-valerate-21-propionate], in the data set on MiaPaca2, the “TI on Resting PBMC” value was 3, the “TI on Stimulated PBMC” value stood at 3, the “Therapeutic Index = IC50 resting PBMC/IC50 cancer cell” value amounted to 3 and the “Therapeutic Index = IC50 stimulated PBMC/IC50 cancer cell” value worked out at 3. On Glucocorticoid Receptor (at very high concentrations), the “GR agonist activity relative to that of 50 nM Dex” value amounted to 20%. In addition, the GR agonist activity entry at Glucocorticoid Receptor (induction of luminescence, FIG. 8) is “essentially ineffective as GR agonist”. The “Therapeutic Index = IC50 resting PBMC/IC50 cancer cell” value in the data set on HT29 (Table IV) came to 3. Moreover, the “Therapeutic Index = IC50 stimulated PBMC/IC50 cancer cell” value in the data set with HT29 (Table VII) is 3. The “Caspase 3/7 induction / caspase activation profile” value in the data set with Caspase 3/7 is “already at 8 hours at and a really high level after 48 hours incubation”. For the same compound, the “average tumor volume, times smaller than in the vehicle group” value in data set [1] (6 weeks after treatment was stopped) was found to be 3.6 times. The “prostate tumor size increase after treatment was stopped” value in data set [1] (oral 100 mg/Kg daily 28 days, after stop) is recorded as 5 fold. The “tumor volume increase relative to start of treatment” value in data set [1] (oral 100 mg/Kg daily, treatment period of 28 days, negative control 10-fold) came out at 2 fold. For the same compound, in data set [1] (oral gavage, FIG. 16), the “statistical significance of tumor growth versus vehicle” value is reported as “statistically significantly different from day 7 up to day 60”.
